Reference: patent publication US6500815B1, “Substituted 11.beta steroid derivatives, method for preparing same and intermediates of said method, use as medicine and compositions containing them” (Aventis Pharma S.A., priority 1999, dated 2002)

Target: αvβ3 human receptor (vitronectin receptor) (Homo sapiens, UniProt P05106+P06756)
Assay: Competition binding test: displacement of the vitronectin/vitronectin receptor (αvβ3) bond
Conditions: human vitronectin coated at 2 μg/ml, 3 hours incubation at ambient temperature, 4B12-HRP antibody detection, OD 450 nm, read-out: Competition binding test Vn/VnR (αvβ3) IC50
Method: 1—Study by the Products of the Invention of the Bond Displacement: Vitronectin/Vitronectin Receptor (αvβ3) Protocol 96 well MaxiSorp plates are coated overnight at 4° C., with 100 μl of human vitronectin (cf Yatohgo et al. Cell., Structure and fraction 13: 281-292 (1988) at 2 μg/ml, (dilution in coating buffer).
The following day, the wells are emptied and the ligands (vitronectin) are then fixed (see fixation buffer) for 1 hour at ambient temperature under gentle agitation. The wells are washed six times (see washing buffer), then per well and in this order the following are added:
40 μl of incubation buffer, 10 μl of the diluted product to be tested, (the products are diluted in a 50/50 mixture of DMSO-H2O) 20 μl of αvβ3 human receptor (cf Pytela et al. Methods Enzymol (1987) 144:475) (dilution in incubation buffer, to be adapted according to the batch of receptor and according to the ligand).
The ligand, the αvβ3 human receptor and the products to be studied are incubated for 3 hours at ambient temperature under gentle agitation.
The wells are again washed six times, then incubated for 2 hours at ambient temperature under gentle agitation, in the presence of 100 μl of 4B12-HRP antibody, anti-receptor coupled to a peroxydase (the 4B12-HRP antibody is diluted in incubation buffer. The dilution is to be adapted according to the batch of receptor).
The wells are then washed six times before measurement of the ligand-receptor bond done by the intermediate of a peroxydase visualizing kit (TMP Microwell Peroxydase Substrate System Kirkegaard: Ref. cat. 50-76-00). This kit contains a flask A of substrate (3,3′,5,5′-tetra-methylbenzidine at 0.4 g/l) and a flask B (H2O2 at 0.02% in Citrate/Citric acid buffer). Extemporaneously, a volume of A is mixed with a volume of B, then the reaction mixture is distributed at a rate of 100 μl/wells. The enzymatic reaction develops in 12′ for Vitronectin/αvβ3, and then its evolution is stopped by the addition of 100 μl of 1M phosphoric acid.
The optical density is measured at 450 nm. […]
coating buffer: 0.05 M carbonate, NaOH pH 9.6 fixation buffer: PBS containing 0.5% of BSA (pH 7.4) washing buffer: PBS containing 0.05% of Tween 20 (pH 7.4)
Expression of the Results: the following curve is drawn: the bonding percentage of human vitronectin as a function of the logarithm of the concentration of each product tested. For each product the IC50 is determined according to the following formula:
BO=Maximum bond in the absence of any product
Bmin=Minimum bond in the presence of the highest concentration of the product.

In order of falling IC50:
1. C[C@]12C[C@H](CCCCCC(=O)O)C3=C4CCC(=NNC(=N)N)C(Cl)=C4CC[C@H]3[C@@H]1CCC2=O [Example 9, 3-[(Aminoiminomethyl)hydrazono]-4-chloro-17-oxo-estra-4,9-diene-11-beta-hexanoic Acid]  1.95 µM
2. C[C@]12C[C@H](CCCCCC(=O)O)C3=C4CC/C(=N/NC(=N)N)C=C4CC[C@H]3[C@@H]1CCC2=O [Example 5b ΔZ, 3-[(Amino-iminomethyl)hydrazono]-17-oxo-estra-4,9-diene-11-beta-hexanoic Acid]  0.375 µM
3. C[C@]12C[C@H](CCCCC(=O)O)C3=C4CCC(=NNC(=N)N)C=C4CC[C@H]3[C@@H]1CCC2=O (mixture of isomers) [Example 4, 3-[(Amino-iminomethyl)hydrazono]-17-oxoestra-4,9-dien-11-beta-pentanoic Acid]  0.133 µM
4. CC12CC(CCCCC(NC(=O)OCc3ccccc3)C(=O)O)C3=C4CCC(=NNC5=NCCN5)C=C4CCC3C1CCC2O (stereo not drawn) [Example 3, 3-[(4,5-Dihydro-1H-imidazol-2-yl)hydrazono]-17-hydroxy-alpha.-[[(phenylmethoxy)carbonyl]amino]-estra-4,9-diene-11-beta-hexanoic Acid]  0.07 µM
5. C[C@]12C[C@H](CCCCCC(=O)O)C3=C4CC/C(=N\NC(=N)N)C=C4CC[C@H]3[C@@H]1CCC2=O [Example 5a ΔE, 3-[(Amino-iminomethyl)hydrazono]-17-oxo-estra-4,9-diene-11-beta-hexanoic Acid]  0.054 µM
6. C[C@]12C[C@H](CCCCCC(=O)O)C3=C4CCC(=NNC5=NCCCN5)C=C4CC[C@H]3[C@@H]1CCC2=O (mixture of isomers) [Example 6b 60/40, 3-[(1,4,5,6-Tetrahydro-2-pyrimidinyl)-hydrazono]-17-oxo-4,9-diene-11-beta-hexanoic Acid]  0.038 µM
7. C[C@]12C[C@H](CCCCC(NC(=O)OCc3ccccc3)C(=O)O)C3=C4CCC(=NNC5=NCCN5)C=C4CC[C@H]3[C@@H]1CCC2=O (mixture of isomers) [Example 2, 3-[(4,5-Dihydro-1H-imidazol-2-yl)hydrazono]-17-oxo-α-[[(phenylmethoxy)carbonyl]amino]-estra-4,9-diene-11-beta-hexanoic Acid]  0.03 µM
8. C[C@]12C[C@H](CCCCCC(=O)O)C3=C4CCC(=NNC5=NCCN5)C=C4CC[C@H]3[C@@H]1CCC2=O (mixture of isomers) [Example 7, 3-[(4,5-Dihydro-1H-imidazol-2-yl)-hydrazono]-17-oxo-estra-4,9-diene-11-beta-hexanoic Acid]  0.025 µM
9. C[C@]12C[C@H](CCCCCC(=O)O)C3=C4CCC(=NNC5=NCCCN5)C=C4CC[C@H]3[C@@H]1CCC2=O (mixture of isomers) [Example 6a 90/10, 3-[(1,4,5,6-Tetrahydro-2-pyrimidinyl)-hydrazono]-17-oxo-4,9-diene-11-beta-hexanoic Acid]  0.02 µM
10. C[C@]12C[C@H](CCCCCC(=O)O)C3=C4CCC(=NNC5=NCCN5)C(Cl)=C4CC[C@H]3[C@@H]1CCC2=O [Example 8, 4-Chloro-3-[(4,5-dihydro-1H-imidazol-2-yl)hydrazono]-17-oxo-estra-4,9-diene-11-beta-hexanoic Acid]  0.017 µM
